Earlier results on one compound are cited in patent US9821060B2, “Heat-sensitive nanoparticle system” (FONDAZIONE ISTITUTO ITALIANO DI TECNOLOGIA, priority 2013, dated 2017).

For the series the following is noted: in water.

Regarding `CC(C)(N=NC(C)(C)C(=O)NCCC(=O)O)C(=O)NCCC(=O)O.O` [VA057, 2,2′Azobis-[N-(2-carboxyethyl)-2-methylpropionamide]hydrate], the “half-life temperature at 10 hours” value is 57 °C.
